# Patent US10077261B2, “Imidazolin-5-one derivative useful as FASN inhibitors for the treatment of cancer” (Janssen Pharmaceutica NV, priority 2012, dated 2018)
# What was measured:
# [1] = target: T1, hFASN enzyme (full length) (Homo sapiens, UniProt P49327); experiment: Fatty Acid Synthase (FASN) inhibition scintillation proximity assay; assay type: biochemical; settings: for inhibition at 10 µM: read-out: Human FASN % inhibition @ 10 μM, 10 μM test compound; for IC50: read-out: Human FASN pIC50 (converted)
# T1 construct: 10 μL hFASN enzyme (full length, 300 ng, purified in house); made in house
# T1 sequence (P49327 whole entry): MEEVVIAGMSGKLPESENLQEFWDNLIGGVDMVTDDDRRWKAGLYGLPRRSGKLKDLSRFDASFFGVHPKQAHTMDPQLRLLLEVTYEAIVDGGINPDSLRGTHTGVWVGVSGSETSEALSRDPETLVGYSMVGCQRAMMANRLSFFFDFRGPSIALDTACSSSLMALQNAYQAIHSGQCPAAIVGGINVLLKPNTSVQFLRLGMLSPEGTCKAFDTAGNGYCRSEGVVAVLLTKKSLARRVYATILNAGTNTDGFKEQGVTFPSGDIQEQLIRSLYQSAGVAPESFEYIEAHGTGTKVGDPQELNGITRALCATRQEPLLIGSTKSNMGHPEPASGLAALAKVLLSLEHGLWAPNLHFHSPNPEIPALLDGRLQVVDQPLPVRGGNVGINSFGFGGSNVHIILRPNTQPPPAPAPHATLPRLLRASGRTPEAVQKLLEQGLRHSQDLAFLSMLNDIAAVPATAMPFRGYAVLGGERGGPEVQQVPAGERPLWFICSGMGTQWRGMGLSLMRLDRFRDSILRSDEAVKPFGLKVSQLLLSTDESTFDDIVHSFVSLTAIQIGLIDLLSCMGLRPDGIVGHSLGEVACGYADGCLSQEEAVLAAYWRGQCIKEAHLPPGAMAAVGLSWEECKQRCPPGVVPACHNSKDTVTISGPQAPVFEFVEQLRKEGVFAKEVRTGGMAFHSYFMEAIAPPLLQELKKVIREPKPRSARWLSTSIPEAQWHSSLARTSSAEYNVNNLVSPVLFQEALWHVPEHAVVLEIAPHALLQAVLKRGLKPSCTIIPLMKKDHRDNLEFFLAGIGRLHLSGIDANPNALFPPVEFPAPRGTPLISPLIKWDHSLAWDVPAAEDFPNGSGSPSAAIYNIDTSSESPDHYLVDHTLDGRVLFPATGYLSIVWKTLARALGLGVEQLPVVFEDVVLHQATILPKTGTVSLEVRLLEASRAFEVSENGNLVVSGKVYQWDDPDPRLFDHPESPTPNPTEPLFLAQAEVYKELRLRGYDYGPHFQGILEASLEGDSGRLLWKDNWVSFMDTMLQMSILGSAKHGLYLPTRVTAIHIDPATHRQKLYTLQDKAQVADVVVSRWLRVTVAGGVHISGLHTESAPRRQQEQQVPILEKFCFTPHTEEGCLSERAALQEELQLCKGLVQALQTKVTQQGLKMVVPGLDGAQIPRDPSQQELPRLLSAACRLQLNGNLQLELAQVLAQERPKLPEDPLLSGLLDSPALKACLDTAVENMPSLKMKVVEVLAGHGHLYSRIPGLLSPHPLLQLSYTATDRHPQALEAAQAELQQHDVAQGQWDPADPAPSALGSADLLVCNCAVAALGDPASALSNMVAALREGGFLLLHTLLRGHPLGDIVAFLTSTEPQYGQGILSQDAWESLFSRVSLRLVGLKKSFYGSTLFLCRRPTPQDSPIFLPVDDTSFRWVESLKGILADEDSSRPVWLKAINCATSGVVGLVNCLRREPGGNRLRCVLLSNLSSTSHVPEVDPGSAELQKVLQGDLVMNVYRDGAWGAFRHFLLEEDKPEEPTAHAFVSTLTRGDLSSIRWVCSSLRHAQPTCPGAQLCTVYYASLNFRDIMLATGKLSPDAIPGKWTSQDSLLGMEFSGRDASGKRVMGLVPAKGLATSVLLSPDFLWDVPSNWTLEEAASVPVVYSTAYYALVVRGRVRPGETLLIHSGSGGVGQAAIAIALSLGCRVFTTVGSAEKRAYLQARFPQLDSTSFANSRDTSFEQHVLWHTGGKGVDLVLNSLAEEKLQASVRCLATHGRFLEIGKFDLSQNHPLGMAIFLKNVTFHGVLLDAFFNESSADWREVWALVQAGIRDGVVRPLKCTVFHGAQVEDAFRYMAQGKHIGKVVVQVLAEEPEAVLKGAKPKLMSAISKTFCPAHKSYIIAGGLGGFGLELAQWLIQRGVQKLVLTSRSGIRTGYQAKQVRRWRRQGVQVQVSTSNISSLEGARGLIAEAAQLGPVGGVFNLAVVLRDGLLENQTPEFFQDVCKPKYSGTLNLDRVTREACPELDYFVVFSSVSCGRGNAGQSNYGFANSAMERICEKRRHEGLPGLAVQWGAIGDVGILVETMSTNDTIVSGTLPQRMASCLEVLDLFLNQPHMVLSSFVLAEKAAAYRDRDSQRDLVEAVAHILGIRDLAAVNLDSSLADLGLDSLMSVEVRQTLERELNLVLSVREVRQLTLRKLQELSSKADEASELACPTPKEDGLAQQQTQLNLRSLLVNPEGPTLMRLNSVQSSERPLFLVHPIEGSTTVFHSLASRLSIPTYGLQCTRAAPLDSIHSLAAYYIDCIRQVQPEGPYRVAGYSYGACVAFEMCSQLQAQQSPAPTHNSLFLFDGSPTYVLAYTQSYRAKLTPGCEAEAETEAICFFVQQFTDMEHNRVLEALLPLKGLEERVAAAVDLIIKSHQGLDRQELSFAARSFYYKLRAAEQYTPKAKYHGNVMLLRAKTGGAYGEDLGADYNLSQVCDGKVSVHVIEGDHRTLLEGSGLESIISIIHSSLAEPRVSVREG
# Outline: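 Full-length in-house purified enzyme (300 ng) was tested in 100 mM KH2PO4 pH 7.5, 1 mM DTT with ³H-acetyl-CoA and malonyl-CoA as substrates; compounds ranged 0.01–30 μM. Reactions were stopped with streptavidin imaging beads, read by LEADseeker at 610 nm, and fitted to a 4-parameter logistic curve.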
# A2780 ovarian cells [2] = experiment: A2780 ovarian cell proliferation assay in lipid reduced medium, with palmitate (MTT); assay type: cell-based; settings: Homo sapiens, A2780, 96 h; read-out: pIC50 A2780 Ovarian Cell, With Palmitate (converted)
# Method: (§1) The biological assays described below correspond to comparative assays for ovarian cell proliferation. […] Compounds active in the absence of palmitate would not be expected to be active in the control.
# (§2) 2500 cells were seeded in a 96-well clear well plate in 200 μL RPMI1640 with 10% Fetal Calf Serum (Hyclone), and incubated at 37° C., 5% CO2. Blanks were wells without cells. The next day the culture medium was aspirated and replaced by 160 μL culture medium with 10% Lipid-Reduced Serum (LRS, Hyclone). 20 μL test compound (at concentrations of 30 μM, 10 μM, 3 μM, 1 μM, 0.30 μM, 0.10 μM, 0.03 μM and 0.01 μM)/DMSO dilution followed by 20 μL palmitate-BSA solution were added to a final concentrations of 0.2% DMSO, 25 μM palmitate (Sigma, P0500, 10 mM stock solution in ethanol) 0.2% fatty-acid-free BSA, 0.25% ethanol. After 96 h incubation, an MTT assay was performed. The absorbance was measured at 544 nm on a SPECTRAMAX brand microplate reader (Molecular Devices).
# A best fit curve was fitted by a minimum sum of squares method, plotting Controlmin versus test compound concentration.
# (§3) Representative compounds of the present invention were tested according to the procedure as described in Biological Example 3 above, with results as listed in Table 8, below.
# A2780 ovarian cells [3] = experiment: A2780 ovarian cell proliferation assay in lipid reduced medium, without palmitate (MTT); assay type: cell-based; settings: Homo sapiens, A2780, 96 h; read-out: pIC50 A2780 Ovarian Cell, Without Palmitate (converted)
# Method: as §1
# as §2, with “ethanol-BSA” for “palmitate-BSA”, “DMSO,” for “DMSO, 25 μM palmitate (Sigma, P0500, 10 mM stock solution in ethanol)”, “incubation” for “incubation,”
# where mLC and mHC were the means of the low control wells and high control wells on the plate, after manual exclusion of outliers. A plot of Controlmin versus test compound concentration was fitted to a 4-parameter logistic curve using a non-linear least squares regression method.
# as §3
SMILES,inhibition at 10 µM [1] [%],IC50 [1] [nM],IC50 (A2780 ovarian cells [2]) [µM],IC50 (A2780 ovarian cells [3]) [nM]
"O=C(C1CC1)N1CC(CN2C(=O)C3(CC3)N=C2c2ccc(-c3ccc4c(Cl)ccnc4c3)cc2)C1 [compound 563, 5-[4-(4-Chloroquinolin-7-yl)phenyl]-6-{[1-(cyclopropylcarbonyl)azetidin-3-yl]methyl}-4,6-diazaspiro[2.4]hept-4-en-7-one]",88,631,> 10,3160
"O=C(CC(F)(F)F)N1CC[C@@H](CN2C(=O)C3(CCCC3)N=C2c2ccc(-c3ccc4occc4c3)cc2)C1 [compound 119, 2-[4-(1-Benzofuran-5-yl)phenyl]-3-{[(3R)-1-(3,3,3-trifluoropropanoyl)pyrrolidin-3-yl]methyl}-1,3-diazaspiro[4.4]non-1-en-4-one]",107,174,11,~2240
"Cc1cc(-c2ccc(-c3ccnn3CC3CC3)cc2)ccc1C1=NC2(CC2)C(=O)N1CC1CN(C(=O)C2(C)CC2)C1 [compound 786, 5-(4′-(1-(cyclopropylmethyl)-1H-pyrazol-5-yl)-3-methyl-[1,1′-biphenyl]-4-yl)-6-((1-(1-methylcyclopeopanecarbonyl)azetidin-3-yl)methyl)-4,6-diazaspiro[2.4]hept-4-en-7-one]",31,> 10000,5.89,6760
"Cn1ncc2cc(-c3ccc(C4=NC5(CC5)C(=O)N4CC4CN(C(=O)C5(O)CC5)C4)c(F)c3)ccc21 [compound 572, 5-[2-Fluoro-4-(1-methyl-1H-indazol-5-yl)phenyl]-6-({1-[(1-hydroxycyclopropyl)carbonyl]azetidin-3-yl}methyl)-4,6-diazaspiro[2.4]hept-4-en-7-one]",87,135,> 10,52.5
"CS(=O)(=O)N1CC(CN2C(=O)C3(CCOC3)N=C2c2ccc(-c3ccc4occc4c3)cc2)C1 (stereo not drawn) [compound 898, 2-(4-(benzofuran-5-yl)phenyl)-3-((1-(methylsulfonyl)azetidin-3-yl)methyl)-7-oxa-1,3-diazaspiro[4.4]non-1-en-4-one]",6,> 10000,> 10,> 10000
"O=C(O)c1ccc2ccc(-c3ccc(C4=NC5(CC5)C(=O)N4CC4CN(C(=O)C5CC5)C4)cc3)cc2n1 [compound 583, 7-[4-(6-{[1-(Cyclopropylcarbonyl)azetidin-3-yl]methyl}-7-oxo-4,6-diazaspiro[2.4]hept-4-en-5-yl)phenyl]quinoline-2-carboxylic acid]",74,3980,> 10,2570
"Cc1ccc2ccc(-c3ccc(C4=NC5(CC5)C(=O)N4CC4CN(C(=O)C5CC5)C4)cc3)c(F)c2n1 [compound 561, 6-{[1-(Cyclopropylcarbonyl)azetidin-3-yl]methyl}-5-[4-(8-fluoro-2-methylquinolin-7-yl)phenyl]-4,6-diazaspiro[2.4]hept-4-en-7-one]",56,~7240,> 10,> 10000
"O=C(N1CC(CN2C(=O)C3(CC3)N=C2c2ccc(-c3ccc4c(cnn4CCO)c3)cc2F)C1)C1(O)CC1 [compound 837, 5-(2-fluoro-4-(1-(2-hydroxyethyl)-1H-indazol-5-yl)phenyl)-6-((1-(1-hydroxycyclopropanecarbonyl)azetidin-3-yl)methyl)-4,6-diazaspiro[2.4]hept-4-en-7-one]",–,–,> 3.02,1230
"O=C(C1CC1)N1CC[C@@H](CN2C(=O)C3(CC3)N=C2c2ccc(-c3ccc4cnccc4c3)cc2)C1 [compound 47, 6-{[(3R)-1-(Cyclopropylcarbonyl)pyrrolidin-3-yl]methyl}-5-(4-isoquinolin-6-ylphenyl)-4,6-diazaspiro[2.4]hept-4-en-7-one]",–,–,> 10,7.76

# Now from value to compound:
inhibition at 10 µM [1] [%],IC50 [1] [nM],IC50 (A2780 ovarian cells [2]) [µM],IC50 (A2780 ovarian cells [3]) [nM],SMILES
86,209,2.19,204,"Cc1cc2cc(-c3ccc(C4=NC5(CC5)C(=O)N4CC4CN(C(=O)C5CC5)C4)c(F)c3)ccc2n1C [compound 569, 6-{[1-(Cyclopropylcarbonyl)azetidin-3-yl]methyl}-5-[4-(1,2-dimethyl-1H-indol-5-yl)-2-fluorophenyl]-4,6-diazaspiro[2.4]hept-4-en-7-one]"
101,355,> 10,1660,"Cn1ccc(C(=O)N2CC[C@@H](CN3C(=O)C4(CCCC4)N=C3c3ccc(-c4ccc5occc5c4)cc3)C2)n1 [compound 118, 2-[4-(1-Benzofuran-5-yl)phenyl]-3-({(3R)-1-[(1-methyl-1H-pyrazol-3-yl)carbonyl]pyrrolidin-3-yl}methyl)-1,3-diazaspiro[4.4]non-1-en-4-one]"
64,5010,9.33,4470,"O=C(C1CC1)N1CC(CN2C(=O)C3(CC3)N=C2c2ccc(-c3ccc4ccc(Cl)nc4c3)cc2)C1 [compound 540, 5-[4-(2-Chloroquinolin-7-yl)phenyl]-6-{[1-(cyclopropylcarbonyl)azetidin-3-yl]methyl}-4,6-diazaspiro[2.4]hept-4-en-7-one]"
68,3720,> 10,~7590,"O=C(C1CC1)N1CC(CN2C(=O)C3(CC3)N=C2c2ccc(-c3cnc4c(F)cccc4c3)cc2)C1 [compound 560, 6-{[1-(Cyclopropylcarbonyl)azetidin-3-yl]methyl}-5-[4-(8-fluoroquinolin-3-yl)phenyl]-4,6-diazaspiro[2.4]hept-4-en-7-one]"
88,166,1.38,53.7,"Cc1cn(C)c2ccc(-c3ccc(C4=NC5(CC5)C(=O)N4CC4CN(C(=O)C5CC5)C4)c(F)c3)cc12 [compound 573, 6-{[1-(Cyclopropylcarbonyl)azetidin-3-yl]methyl}-5-[4-(1,3-dimethyl-1H-indol-5-yl)-2-fluorophenyl]-4,6-diazaspiro[2.4]hept-4-en-7-one]"
71,3980,> 10,~4790,"Cc1cc(-c2ccc3ccc(C(F)(F)F)nc3c2)ccc1C1=NC2(CC2)C(=O)N1CC1CN(C(=O)C2(C)CC2)C1 [compound 620, 6-({1-[(1-Methylcyclopropyl)carbonyl]azetidin-3-yl}methyl)-5-{2-methyl-4-[2-(trifluoromethyl)quinolin-7-yl]phenyl}-4,6-diazaspiro[2.4]hept-4-en-7-one]"
56,8320,> 10,5250,"Cc1cc(-c2cccc(S(C)(=O)=O)c2)ccc1C1=NC2(CC2)C(=O)N1C[C@@H]1CCN(C(=O)C2CC2)C1 [compound 633, 6-{[(3R)-1-(Cyclopropylcarbonyl)pyrrolidin-3-yl]methyl}-5-[3-methyl-3′-(methylsulfonyl)biphenyl-4-yl]-4,6-diazaspiro[2.4]hept-4-en-7-one]"
92.9,708,> 10,631,"O=C(C1CC1)N1CC[C@@H](CN2C(=O)C3(CC3)N=C2c2ccc(-c3ccc(O)cc3)cc2)C1 [compound 64, 6-{[(3R)-1-(Cyclopropylcarbonyl)pyrrolidin-3-yl]methyl}-5-(4′-hydroxybiphenyl-4-yl)-4,6-diazaspiro[2.4]hept-4-en-7-one]"
–,–,~6.17,32.4,"Cc1cc(-c2ccc(-c3cnn(C4CCC4)c3)cc2)ccc1C1=NC2(CC2)C(=O)N1CC1CN(C(=O)C2CC2)C1 [compound 330, 5-(4′-(1-cyclobutyl-1H-pyrazol-4-yl)-3-methyl-[1,1′-biphenyl]-4-yl)-6-((1-(cyclopropanecarbonyl)azetidin-3-yl)methyl)4,6-diazaspiro[2.4]hept-4-en-7-one]"
